The results in this text go back to patent US11793420B2, “Ingestible device for delivery of a dispensable substance” (Biora Therapeutics, Inc., priority 2016, dated 2023).

For the data set, the target named is Human TNFα (Homo sapiens, UniProt P01375). The data set is described as follows: AlphaLISA competitive inhibition assay of drug recovered from bellows or syringe.
Sequence of Human TNFα (P01375 77-233 limits assumed): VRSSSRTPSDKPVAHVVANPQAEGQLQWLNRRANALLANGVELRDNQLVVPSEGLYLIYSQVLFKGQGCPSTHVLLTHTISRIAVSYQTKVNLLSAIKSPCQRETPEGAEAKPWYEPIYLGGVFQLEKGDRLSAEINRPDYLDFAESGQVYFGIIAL

For adalimumab [Exemptia], the “shift of bellows curves” value (after 24 hours (FIG. 86), within the error bars) was “slight right shift”. The “IC50 values of the drug dispensed from the bellows versus standard dispensation method” value (bellows vs. standard dispensation method (Table 6)) is reported as “comparable”. Also, where the note is “silicone or PVC bellows, shelf lives of 4, 24 hours, or 336 hours”, the “impact of bellows on drug function” value is recorded as “do not negatively impact the drug function”.
